According to patent US9586963B2 (GENFIT, priority 2011, dated 2017):
Where a name gives a salt, the structure may show the parent alone.

Biological target: T1, Rev-Erb alpha (Homo sapiens, UniProt P20393)
T1 sequence (P20393 284-614 limits assumed): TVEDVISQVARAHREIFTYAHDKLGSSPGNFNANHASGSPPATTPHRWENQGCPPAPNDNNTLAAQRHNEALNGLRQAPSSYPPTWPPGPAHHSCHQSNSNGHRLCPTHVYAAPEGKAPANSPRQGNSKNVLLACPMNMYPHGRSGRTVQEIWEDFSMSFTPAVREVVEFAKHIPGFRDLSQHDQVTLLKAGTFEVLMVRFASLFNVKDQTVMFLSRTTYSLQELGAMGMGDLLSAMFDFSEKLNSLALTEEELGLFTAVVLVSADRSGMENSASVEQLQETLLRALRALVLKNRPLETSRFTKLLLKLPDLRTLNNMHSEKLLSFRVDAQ
Assay: M2H (mammalian two-hybrid) cellular activation assay of Rev-Erb alpha
Format: cell-based
Details: M2H assay, HEK293 cells; for EC50: Gal4-Rev-Erb alpha / VP16-NCoR, luciferase reporter; for Emax: relative to DMSO, at the tested dose, read-out: TOP activation
Outline: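 Six-point dose-response, 18 h, 37 °C, serum-free, in HEK293 cells carrying a Gal4-RE luciferase reporter with Gal4-Rev-Erb alpha or beta plus VP16-NCoR (corepressor interaction readout). EC50 and TOP activation (%) derived from luminescence across four experiments.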

EC50	Emax	Structure (SMILES)
> 6000 nM	> 130%	NCc1ccc(Oc2ccc3nnc(Cl)n3n2)c(-c2ccccc2)c1 [Cpd.4-171, 3-chloro-6-(5-aminomethylbiphenyl-2-yloxy)-[1,2,4]triazolo[4,3-b]pyridazine, trifluoroacetic acid salt]
100 to 1000 nM		CC(=O)OCc1ccc(-c2ccccc2)c(Oc2ccc3nnc(Cl)n3n2)c1 [Cpd.4-172, 3-chloro-6-(4-methylcarbonyloxymethylbiphenyl-2-yloxy)-[1,2,4]triazolo[4,3-b]pyridazine]
1000 to 6000 nM		CS(=O)(=O)Nc1ccc(Oc2ccc3nnc(Cl)n3n2)c(-c2ccccc2)c1 [Cpd.4-173, 3-chloro-6-(5-methylsulfonamidobiphenyl-2-yloxy)-[1,2,4]triazolo[4,3-b]pyridazine]
1000 to 6000 nM		CC(=O)Nc1ccc(Oc2ccc3nnc(Cl)n3n2)c(-c2ccccc2)c1 [Cpd.4-174, 3-chloro-6-(5-acetamidobiphenyl-2-yloxy)-[1,2,4]triazolo[4,3-b]pyridazine]
1000 to 6000 nM		Clc1nnc2ccc(Oc3cc(CNCC4CCCCC4)ccc3-c3ccccc3)nn12 [Cpd.4-176, 3-chloro-6-(4-(cyclohexylmethyl)aminomethylbiphenyl-2-yloxy)-[1,2,4]triazolo[4,3-b]pyridazine]
> 6000 nM	> 130%	CN1CCN(Cc2ccc(-c3ccccc3)c(Oc3ccc4nnc(Cl)n4n3)c2)CC1 [Cpd.4-177, 3-chloro-6-(4-(1-methylpiperazin-4-ylmethyl)biphenyl-2-yloxy)-[1,2,4]triazolo[4,3-b]pyridazine]
1000 to 6000 nM		Clc1nnc2ccc(Oc3cc(CNC4CC4)ccc3-c3ccccc3)nn12 [Cpd.4-178, 3-chloro-6-(4-cyclopropylaminomethylbiphenyl-2-yloxy)-[1,2,4]triazolo[4,3-b]pyridazine]
1000 to 6000 nM		Clc1nnc2ccc(Oc3cc(CNC4CCCC4)ccc3-c3ccccc3)nn12 [Cpd.4-179, 3-chloro-6-(4-cyclopentylaminomethylbiphenyl-2-yloxy)-[1,2,4]triazolo[4,3-b]pyridazine]
> 6000 nM	> 130%	Clc1nnc2ccc(Oc3cc(CNCC4CCCO4)ccc3-c3ccccc3)nn12 (centres unmarked) [Cpd.4-180]
1000 to 6000 nM		CS(=O)(=O)N1CCN(Cc2ccc(-c3ccccc3)c(Oc3ccc4nnc(Cl)n4n3)c2)CC1 [Cpd.4-182, 3-chloro-6-(4-(4-methanesulfonylpiperazin-1-ylmethyl)biphenyl-2-yloxy)-[1,2,4]triazolo[4,3-b]pyridazine]
1000 to 6000 nM		CC(C)(C)OC(=O)NCc1ccc(-c2ccccc2)c(Oc2ccc3nnc(Cl)n3n2)c1 [Cpd.4-186, 3-chloro-6-(4-tertbutyloxycarbonylaminomethylbiphenyl-2-yloxy)-[1,2,4]triazolo[4,3-b]pyridazine]
1000 to 6000 nM		CC(C)C(=O)Nc1ccc(Oc2ccc3nnc(Cl)n3n2)c(-c2ccccc2)c1 [Cpd.4-192, 3-chloro-6-(5-isopropylcarbonylamino-biphenyl-2-yloxy)-[1,2,4]triazolo[4,3-b]pyridazine]
100 to 1000 nM		Cc1nc(-c2ccc(-c3ccccc3)c(Oc3ccc4nnc(Cl)n4n3)c2)no1 [Cpd.4-197, 3-chloro-6-(5-(5-methyl-1,2,4-oxadiazol-3-yl)-2-(phenyl)phenoxy)-[1,2,4]triazolo[4,3-b]pyridazine]
100 to 1000 nM		Cc1nc(-c2ccc(Oc3ccc4nnc(Cl)n4n3)c(-c3ccccc3)c2)no1 [Cpd.4-198, 3-chloro-6-(4-(5-methyl-1,2,4-oxadiazol-3-yl)-2-(phenyl)phenoxy)-[1,2,4]triazolo[4,3-b]pyridazine]
> 6000 nM	> 130%	Cc1nc(-c2ccc(-c3cccnc3)c(Oc3ccc4nnc(Cl)n4n3)c2)no1 [Cpd.4-199, 3-chloro-6-(5-(5-methyl-1,2,4-oxadiazol-3-yl)-2-(pyridin-3-yl)phenoxy)-[1,2,4]triazolo[4,3-b]pyridazine]
< 100 nM		FC(F)(F)c1ccc(-c2ccccc2)c(Oc2nn3c(Cl)nnc3c3ccccc23)c1 [Cpd.5-1, 3-chloro-6-(4-trifluoromethyl-biphenyl-2-yloxy)-[1,2,4]triazolo[3,4-a]phthalazine]
100 to 1000 nM		Fc1ccc2c(Oc3cc(C(F)(F)F)ccc3-c3ccccc3)nn3c(Cl)nnc3c2c1 [Cpd.5-2, 3-chloro-6-(4-trifluoromethyl-biphenyl-2-yloxy)-9-fluoro-[1,2,4]triazolo[3,4-a]phthalazine]
100 to 1000 nM		CCc1c(Oc2cc(C(F)(F)F)ccc2-c2ccccc2)nn2c(Cl)nnc2c1CC [Cpd.5-12, 3-chloro-7,8-diethyl-6-(4-trifluoromethyl-biphenyl-2-yloxy)-[1,2,4]triazolo[4,3-b]pyridazine]
100 to 1000 nM		Cc1ccc(-c2ccc(C(F)(F)F)cc2Oc2cc(C)c3nnc(Cl)n3n2)cn1 [Cpd.5-16, 3-chloro-8-methyl-6-(2-(6-methylpyridin-3-yl)-5-(trifluoromethyl)phenoxy)-[1,2,4]triazolo[4,3-b]pyridazine]
100 to 1000 nM		Cc1ccc(-c2ccc(C(F)(F)F)cc2Oc2nn3c(Cl)nnc3cc2C)cn1 [Cpd.5-17, 3-chloro-7-methyl-6-(2-(6-methylpyridin-3-yl)-5-(trifluoromethyl)phenoxy)-[1,2,4]triazolo[4,3-b]pyridazine]
100 to 1000 nM		Cc1ccc(-c2ccc(C(F)(F)F)cc2Oc2nn3c(Cl)nnc3c3ccccc23)cn1 [Cpd.5-18, 3-chloro-6-(2-(6-methylpyridin-3-yl)-5-(trifluoromethyl)phenoxy)-[1,2,4]triazolo[3,4-a]phthalazine]
100 to 1000 nM		Cc1ncccc1-c1ccc(C(F)(F)F)cc1Oc1cc(C)c2nnc(Cl)n2n1 [Cpd.5-19, 3-chloro-8-methyl-6-(2-(2-methylpyridin-3-yl)-5-(trifluoromethyl)phenoxy)-[1,2,4]triazolo[4,3-b]pyridazine]
100 to 1000 nM		Cc1cc2nnc(Cl)n2nc1Oc1cc(C(F)(F)F)ccc1-c1cccnc1C [Cpd.5-20, 3-chloro-7-methyl-6-(2-(2-methylpyridin-3-yl)-5-(trifluoromethyl)phenoxy)-[1,2,4]triazolo[4,3-b]pyridazine]
100 to 1000 nM		Cc1ncccc1-c1ccc(C(F)(F)F)cc1Oc1nn2c(Cl)nnc2c2ccccc12 [Cpd.5-21, 3-chloro-6-(2-(2-methylpyridin-3-yl)-5-(trifluoromethyl)phenoxy)-[1,2,4]triazolo[3,4-a]phthalazine]
100 to 1000 nM		FC(F)(F)c1ccc(-c2cncnc2)c(Oc2nn3c(Cl)nnc3c3ccccc23)c1 [Cpd.5-22, 3-chloro-6-(2-(pyrimidin-5-yl)-5-(trifluoromethyl)phenoxy)-[1,2,4]triazolo[3,4-a]phthalazine]
1000 to 6000 nM		COc1ncccc1-c1ccc(C(F)(F)F)cc1Oc1nn2c(Cl)nnc2c(C)c1C [Cpd.5-25, 3-chloro-7,8-dimethyl-6-((2-(2-methoxypyridin-3-yl))-5-(trifluoromethyl)phenoxy)-[1,2,4]triazolo[4,3-b]pyridazine]
1000 to 6000 nM		COc1ncc(C)cc1-c1ccc(C(F)(F)F)cc1Oc1nn2c(Cl)nnc2cc1C [Cpd.5-28, 3-chloro-7-methyl-6-((2-(2-methoxy-5-methylpyridin-3-yl))-5-(trifluoromethyl)phenoxy)-[1,2,4]triazolo[4,3-b]pyridazine]
1000 to 6000 nM		Cc1cc2nnc(Cl)n2nc1Oc1cc(C(F)(F)F)ccc1-c1cncnc1 [Cpd.5-29, 3-chloro-7-methyl-6-(2-(pyrimidin-5-yl)-5-(trifluoromethyl)phenoxy)-[1,2,4]triazolo[4,3-b]pyridazine]
